From US5138069A (E. I. Du Pont de Nemours and Company, priority 1988, dated 1992)
Where two headings read alike, the source gives them in different places.

Tests used:
Renal Hypertensive Rats = test: Antihypertensive effects in renal hypertensive rats; type: in vivo; conditions: Rattus norvegicus; for minimal effective dose at 10 mg/kg / minimal effective dose at 100 mg/kg: Table 25; for minimal effective dose at 10 mg/kg / minimal effective dose at 3 mg/kg: intravenous; for minimal effective dose at 10 mg/kg: 10 mg/kg or less; for minimal effective dose at 100 mg/kg / minimal effective dose at 30 mg/kg: oral; for minimal effective dose at 100 mg/kg: 100 mg/kg or less; for minimal effective dose at 3 mg/kg / minimal effective dose at 30 mg/kg: Table 26
How it was run: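 Renal hypertensive rats (renin-driven AII elevation) dosed orally at 100 mg/kg and/or i.v. via jugular cannula at 10 mg/kg; a second set used 30 mg/kg oral and 3 mg/kg i.v. Arterial pressure recorded continuously via carotid cannula and compared with pretreatment levels.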

AII receptor = test: Angiotensin II receptor binding (displacement of 3H-AII); conditions: read-out: Angiotensin II Receptor Binding IC50, rat adrenal cortical microsomes, 2 nM 3H-AII, 1 hour, room temperature
How it was run: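 The receptor source was rat adrenal cortical microsomes in Tris buffer, incubated with 2 nM ³H-AII plus or minus test compound for 1 h at room temperature. Bound and free ligand were separated by rapid filtration on glass-fibre filters. Filter-bound ³H-AII was counted by scintillation.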

[1] = Table 25, tested as sodium salt

SMILES | IC50 (AII receptor; Table 25) [nM] | minimal effective dose at 10 mg/kg (Renal Hypertensive Rats) [mg/kg] | minimal effective dose at 100 mg/kg (Renal Hypertensive Rats) [mg/kg] | further results
CCCCc1nc(Cl)c(Cn2cncn2)n1Cc1ccc(C(=O)c2ccccc2C(=O)O)cc1 [Example 204, 2-Butyl-1-[4-(2-Carboxybenzoyl)benzyl]-4-chloro-5-((1,2,4-triazol-1-yl)methyl)imidazole] | – | – | – | minimal effective dose at 10 mg/kg (Renal Hypertensive Rats; tested as sodium salt): < 10 mg/kg; minimal effective dose at 100 mg/kg (Renal Hypertensive Rats; tested as sodium salt): > 100 mg/kg; IC50 (AII receptor; [1]): 1900 nM
CCCCc1nc(Cl)c(Cc2nnn[nH]2)n1Cc1ccc(C(=O)c2ccccc2C(=O)O)cc1 [Example 208, 2-Butyl-1-[4-(2-carboxybenzoyl)benzyl]-4-chloro-5-[(1H-tetrazol-5-yl)methyl]imidazole] | – | – | – | minimal effective dose at 10 mg/kg (Renal Hypertensive Rats; tested as sodium salt): < 10 mg/kg; minimal effective dose at 100 mg/kg (Renal Hypertensive Rats; tested as sodium salt): > 100 mg/kg; IC50 (AII receptor; [1]): 330 nM
CCCCc1nc(Cl)c(CNS(C)(=O)=O)n1Cc1ccc(C(=O)c2ccccc2C(=O)O)cc1 [Example 215] | – | – | – | minimal effective dose at 10 mg/kg (Renal Hypertensive Rats; tested as sodium salt): < 10 mg/kg; minimal effective dose at 100 mg/kg (Renal Hypertensive Rats; tested as sodium salt): > 100 mg/kg; IC50 (AII receptor; [1]): 200 nM
CCCCc1nc(Cl)c(/C=C/CO)n1Cc1ccc(NC(=O)c2ccccc2C(=O)O)cc1 [Example 227, 3-[1-(4-(2-Carboxybenzamido)-benzyl)-2-butyl-4-chloroimidazol-5-yl]-propen-1-ol, E isomer] | 110 | < 10 | – | –
CCCCc1nc(Cl)c(/C=C/c2ccccc2)n1Cc1ccc(NC(=O)c2ccccc2C(=O)O)cc1 [Example 230, 1-[4-(2-Carboxybenzamido)-benzyl]-2-butyl-4-chloro-5-(2-phenylethen-1-yl)imidazole, E isomer] | 1600 | < 10 | – | –
CCCCc1nc(Cl)c(CC(C)C(=O)OC(C)C)n1Cc1ccc(NC(=O)c2ccccc2NS(=O)(=O)C(F)(F)F)cc1 (stereo not drawn) [Example 237, 3-[1-(4-((N-trifluoromethanesulfonyl)anthranilamido)benzyl)-2-butyl-4-chlorimidazol-5-yl]-2-methylpropanoic acid, isopropyl ester] | 120 | < 10 | > 100 | –
CCCCc1nc(C(F)(F)F)c(C(=O)O)n1Cc1ccc(-c2ccccc2-c2nn[nH]n2)cc1 [Example 240A] | – | – | – | minimal effective dose at 3 mg/kg (Renal Hypertensive Rats): < 3 mg/kg; minimal effective dose at 30 mg/kg (Renal Hypertensive Rats): < 30 mg/kg; IC50 (AII receptor; Table 26): 150 nM
CCCCc1nc(Cl)c(CCC(C)=O)n1Cc1ccc(NC(=O)c2ccccc2C(=O)O)cc1 [Example 244] | 88 | < 10 | – | –
CCCCc1nc(Cl)c(CC(C)C(=O)OC(C)C)n1Cc1ccc(NC(=O)c2ccccc2C(=O)O)cc1 (stereo not drawn) [Example 246] | 120 | < 10 | – | –
CCCCc1nc(Cl)c(CCC(=O)N2CCOCC2)n1Cc1ccc(NC(=O)c2ccccc2NS(=O)(=O)C(F)(F)F)cc1 [Example 250] | 120 | < 10 | > 100 | –
CCCc1nc(Cl)c(C(=O)O)n1Cc1ccc(-c2ccccc2-c2nn[nH]n2)cc1 [Example 251A] | – | – | – | minimal effective dose at 3 mg/kg (Renal Hypertensive Rats): < 3 mg/kg; minimal effective dose at 30 mg/kg (Renal Hypertensive Rats): < 30 mg/kg; IC50 (AII receptor; Table 26): 45 nM
CCCc1nc(C(F)(F)F)c(C(=O)O)n1Cc1ccc(-c2ccccc2-c2nn[nH]n2)cc1 [Example 265A] | – | – | – | minimal effective dose at 3 mg/kg (Renal Hypertensive Rats): < 3 mg/kg; minimal effective dose at 30 mg/kg (Renal Hypertensive Rats): < 30 mg/kg; IC50 (AII receptor; Table 26): 1100 nM
CCCCc1nc(C(F)(F)C(F)(F)F)c(C(=O)O)n1Cc1ccc(-c2ccccc2-c2nn[nH]n2)cc1 [Example 265B] | – | – | – | minimal effective dose at 3 mg/kg (Renal Hypertensive Rats): < 3 mg/kg; minimal effective dose at 30 mg/kg (Renal Hypertensive Rats): < 30 mg/kg; IC50 (AII receptor; Table 26): 1400 nM
CCCc1nc(C(F)(F)F)c(C(=O)O)n1Cc1ccc(-c2ccccc2C(=O)O)cc1 [Example 265D] | – | – | – | minimal effective dose at 3 mg/kg (Renal Hypertensive Rats): < 3 mg/kg; IC50 (AII receptor; Table 26): 1100 nM
CCCc1nc(C(F)(F)C(F)(F)F)c(C(=O)O)n1Cc1ccc(-c2ccccc2C(=O)O)cc1 [Example 265E] | – | – | – | minimal effective dose at 3 mg/kg (Renal Hypertensive Rats): < 3 mg/kg; IC50 (AII receptor; Table 26): 1600 nM
CCCCc1nc(Cl)c(CCCC(=O)O)n1Cc1ccc(-c2ccccc2C(=O)O)cc1 [Example 265] | 270 | < 10 | < 100 | –
CCC/C=C\c1nc(Cl)c(CO)n1Cc1ccc(-c2ccccc2C(=O)O)cc1 [Example 266, 1-[(2-Carboxybiphenyl-4-yl)-methyl]-4-chloro-5-hydroxymethyl-2-(cis-pent-1-en-1-yl)imidazole] | 2300 | < 10 | – | –
CCCCc1nc(C(F)(F)F)c(C(=O)OCOC(=O)C(C)(C)C)n1Cc1ccc(-c2ccccc2-c2nn[nH]n2)cc1 [Example 314A] | – | – | – | minimal effective dose at 3 mg/kg (Renal Hypertensive Rats): < 3 mg/kg; minimal effective dose at 30 mg/kg (Renal Hypertensive Rats): < 30 mg/kg; IC50 (AII receptor; Table 26): 64 nM
CCCCc1nc(Cl)c(C(O)c2ccccc2)n1Cc1ccc(-c2ccccc2-c2nn[nH]n2)cc1 (stereo not drawn) [Example 317A, α-[2-n-butyl-4-chloro-1-[(2'-(1H-tetrazol-5-yl)biphenyl-4-yl)methyl]imidazol-5-yl]-α-phenylmethanol] | – | – | – | minimal effective dose at 3 mg/kg (Renal Hypertensive Rats): < 3 mg/kg; minimal effective dose at 30 mg/kg (Renal Hypertensive Rats): > 30 mg/kg; IC50 (AII receptor; Table 26): 410 nM
CCCCc1nc(Cl)c(CO)n1Cc1ccc(-c2ccccc2C(=O)NS(=O)(=O)c2ccccc2C)cc1 [Example 319] | – | – | – | minimal effective dose at 3 mg/kg (Renal Hypertensive Rats): < 3 mg/kg; minimal effective dose at 30 mg/kg (Renal Hypertensive Rats): > 30 mg/kg; IC50 (AII receptor; Table 26): 91 nM

Now from value to molecule, other results behind:

IC50 (AII receptor; Table 25) [nM] | SMILES | minimal effective dose at 10 mg/kg (Renal Hypertensive Rats) [mg/kg] | minimal effective dose at 100 mg/kg (Renal Hypertensive Rats) [mg/kg] | further results
9600 | CCCCc1nc(Cl)c(CO)n1Cc1ccc(-c2ccccc2-c2c[nH]nn2)cc1 [Example 177] | < 10 | > 100 | –
4900 | CCCCc1nc(Cl)c(CO)n1Cc1ccc(-c2ccccc2C(=O)NOCc2ccccc2)cc1 [Example 181] | < 10 | > 100 | –
4100 | CCCCc1nc(Cl)c(CO)n1Cc1ccc(-c2ccccc2C(=O)NO)cc1 [Example 182] | < 10 | > 100 | –
2300 | CCCCc1nc(Cl)c(CC(=O)O)n1Cc1ccc(OCc2ccccc2C(=O)O)cc1 [Example 192, 1-[4-(2-Carboxybenzyloxy)benzyl]-2-butyl-4-chloroimidazole-5-acetic acid] | – | > 100 | –
2100 | CCCCc1nc(Cl)c(/C=C/C(C)O)n1Cc1ccc(-c2ccccc2C(=O)OC)cc1 (stereo not drawn) [Example 229, 4-[1-(2'-Carbomethoxybiphenyl-4-yl)methyl-2-butyl-4-chloroimidazol-5-yl]-3-buten-2-ol, E isomer] | < 10 | < 100 | –
510 | CCCCc1nc(Cl)c(/C=C/COC(C)=O)n1Cc1ccc(NC(=O)c2ccccc2NS(=O)(=O)C(F)(F)F)cc1 [Example 232, 3-[1-(4-((N-Trifluoromethanesulfonyl)-anthranilamido)benzyl)-2-butyl-4-chloroimidazol-5-yl]-3-propen-1-ol acetate, E isomer] | < 10 | – | –
600 | CCCCc1nc(Cl)c(/C=C/CO)n1Cc1ccc(NC(=O)c2ccccc2NS(=O)(=O)C(F)(F)F)cc1 [Example 233, 3-[1-(4-((N-trifluoromethanesulfonyl)-anthranilamido)benzyl)-2-butyl-4-chloroimidazol-5-yl]-propen-1-ol, E isomer] | < 10 | < 100 | –
64 | CCCCc1nc(Cl)c(CCC(=O)OC)n1Cc1ccc(NC(=O)c2ccccc2C(=O)O)cc1 [Example 234, 3-[2-Butyl-4-chloro-1-(4-(2-carboxybenzamido)benzyl)imidazol-5-yl]-propanoic acid methyl ester] | < 10 | > 100 | –
160 | CCCCc1nc(Cl)c(CCC(=O)OC)n1Cc1ccc(NC(=O)c2ccccc2NS(=O)(=O)C(F)(F)F)cc1 [Example 235, 3-[2-Butyl-4-chloro-1-(4-((N-trifluoromethanesulfonyl)anthranilamido)benzyl)imidazol-5-yl]-propanoic acid methyl ester] | < 10 | > 100 | –
92 | CCCCc1nc(Cl)c(C(=O)O)n1Cc1ccc(-c2ccccc2C(=O)O)cc1 [Example 240, 1-[(2'-Carboxybiphenyl-4-yl)methyl]-2-butyl-4-chloroimidazole-5-carboxylicacid] | < 10 | – | –
270 | CCCCc1nc(Cl)c(/C=C/C(=O)OC)n1Cc1ccc(NC(=O)c2ccccc2C(=O)O)cc1 [Example 242] | < 10 | – | –
250 | CCCCc1nc(Cl)c(CCCOC(C)=O)n1Cc1ccc(NC(=O)c2ccccc2NS(=O)(=O)C(F)(F)F)cc1 [Example 248] | < 10 | – | –
72 | CCCCc1nc(Cl)c(CCC(=O)N2CCOCC2)n1Cc1ccc(NC(=O)c2ccccc2C(=O)O)cc1 [Example 249] | < 10 | > 100 | –
250 | CCCCc1nc(Cl)c(CCC(=O)O)n1Cc1ccc(-c2ccccc2C(=O)O)cc1 [Example 264] | < 10 | < 100 | –
700 | CCCCc1nc(Cl)c(CCCF)n1Cc1ccc(-c2ccccc2C(=O)O)cc1 [Example 292] | < 10 | < 100 | –
630 | CCCCc1nc(Cl)c(C=CCO)n1Cc1ccc(-c2ccccc2C(=O)O)cc1 [Example 314] | < 10 | > 100 | –
